Where two headings read alike, the source gives them in different places.
Target: T1, human CB2R (Homo sapiens, UniProt P34972)
T1 construct: host or cells: CHO cells
Assay: CB2R mediated modulation of cAMP synthesis (forskolin-stimulated cAMP, CHO cells expressing human CB2R)
Type: cell-based
Experimental: B. CB2R Mediated Modulation of cAMP Synthesis:
Compounds of the invention were evaluated for their CB2 agonist or inverse agonistic activity in accordance with the following experimental method.
CHO cells expressing human CB2R (Euroscreen) were plated at a density of 5000 cells per well in 384 well plates and incubated overnight at 37° C. After removing the media, the cells were treated with test compounds diluted in stimulation buffer containing 1 mM IBMX, 0.25% BSA and 10 uM Forskolin. The assay was incubated for 30 minutes at 37° C. Cells were lysed and the cAMP concentration was measured using DiscoverX-XS cAMP kit, following the manufacturer's protocol. In this setting, agonists will decrease forskolin induced production of cAMP while inverse agonists will further increase forskolin induced production of cAMP. EC50 of agonists were calculated as follows. The maximal amount of cAMP produced by forskolin compared to the level of cAMP inhibited by 1 uM CP55940 is defined as 100%. […] Data was analyzed using a four-parameter logistic model. (Model 205 of XLfit 4.0).

[1] = agonist EC50, inhibition of forskolin-stimulated cAMP synthesis, CHO cells expressing human CB2R, mean, read-out: CB2 CAMP @ EC50 nM (mean)

T1 sequence (P34972 whole entry): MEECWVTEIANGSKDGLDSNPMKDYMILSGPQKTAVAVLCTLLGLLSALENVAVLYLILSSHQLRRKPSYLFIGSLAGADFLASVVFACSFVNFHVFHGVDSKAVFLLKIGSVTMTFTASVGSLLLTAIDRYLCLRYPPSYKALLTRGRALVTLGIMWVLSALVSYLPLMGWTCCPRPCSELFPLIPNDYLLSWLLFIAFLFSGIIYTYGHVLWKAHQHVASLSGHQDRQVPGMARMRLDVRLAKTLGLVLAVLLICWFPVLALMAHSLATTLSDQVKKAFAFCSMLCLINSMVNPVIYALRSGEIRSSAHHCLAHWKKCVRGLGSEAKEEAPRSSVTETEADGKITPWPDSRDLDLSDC

Compound	EC50 [nM]	EC50 [1] [nM]
CC(C)(C)c1cc(NC(=O)[C@H]2CCCN(C(=O)C3CCC(F)(F)CC3)C2)no1 [(S)-1-(4,4-Difluoro-cyclohexanecarbonyl)-piperidine-3-carboxylic acid (5-tert-butyl-isoxazol-3-yl)-amide]	119	–
O=C(Nc1nc(-c2ccc(F)cc2)cs1)[C@@H]1CCCCN1C(=O)N1CCS(=O)(=O)CC1 [(S)-1-(1,1-Dioxo-1λ^6-thiomorpholine-4-carbonyl)-piperidine-2-carboxylic acid [4-(4-fluoro-phenyl)-thiazol-2-yl]-amide]	38	–
CC(C)(C)c1cc(NC(=O)[C@@H]2C[C@@H](O)CCN2c2ncc(C(F)(F)F)cc2Cl)no1 [(2S,4S)-3′-Chloro-4-hydroxy-5′-trifluoromethyl-3,4,5,6-tetrahydro-2H-[1,2′]bipyridinyl-2-carboxylic acid (5-tert-butyl-isoxazol-3-yl)-amide]	0.3	–
CC(C)(C)c1cc(NC(=O)[C@@H]2CCCCN2C(=O)c2ccc(F)cc2)no1 [(S)-1-(4-Fluoro-benzoyl)-piperidine-2-carboxylic acid (5-tert-butyl-isoxazol-3-yl)-amide]	2.2	–
O=C(Nc1nc(C2CCCCC2)cs1)[C@@H]1CCCCN1CC1CCOCC1 [(S)-1-(Tetrahydro-pyran-4-ylmethyl)-piperidine-2-carboxylic acid (4-cyclohexyl-thiazol-2-yl)-amide]	–	9
CC(C)(C)c1cc(NC(=O)[C@@H]2CCCCN2C(=O)CN2CCC(F)CC2)no1 [(S)-1-[2-(4-Fluoro-piperidin-1-yl)-acetyl]-piperidine-2-carboxylic acid (5-tert-butyl-isoxazol-3-yl)-amide]	75	–
CC(C)(C)c1cc(NC(=O)C2COCCN2S(=O)(=O)c2ccc(Cl)cc2)no1 (stereo not drawn) [4-(4-Chloro-benzenesulfonyl)-morpholine-3-carboxylic acid (5-tert-butyl-isoxazol-3-yl)-amide]	34	–
O=C(Nc1nc2cc(Cl)ccc2[nH]1)[C@@H]1CCCCN1C(=O)N1CCS(=O)(=O)CC1 [(S)-1-(1,1-Dioxo-1λ^6-thiomorpholine-4-carbonyl)-piperidine-2-carboxylic acid (5-chloro-1H-benzimidazol-2-yl)-amide]	77	–
CC(C)(C)c1cc(NC(=O)C2CCCN(C(=O)C3CCOCC3)C2)no1 (stereo not drawn) [1-(Tetrahydro-pyran-4-carbonyl)-piperidine-3-carboxylic acid (5-tert-butyl-isoxazol-3-yl)-amide]	–	205
CC(C)(C)c1cc(NC(=O)[C@@H]2CCCCN2C(=O)C2CCCC2)no1 [(S)-1-Cyclopentanecarbonyl-piperidine-2-carboxylic acid (5-tert-butyl-isoxazol-3-yl)-amide]	14	–
CCn1nc(NC(=O)[C@@H]2CCCCN2C(=O)CC2CCS(=O)(=O)C2)nc1-c1ccccc1 (stereo partly drawn) [(S)-1-[2-(1,1-Dioxo-tetrahydro-1λ^6-thiophen-3-yl)-acetyl]-piperidine-2-carboxylic acid (1-ethyl-5-phenyl-1H-1,2,4-triazol-3-yl)-amide]	–	365
CC(C)(C)c1cc(NC(=O)[C@@H]2CCCCCN2CC2CCOCC2)no1 [(S)-1-(Tetrahydro-pyran-4-ylmethyl)-azepane-2-carboxylic acid (5-tert-butyl-isoxazol-3-yl)-amide]	0.03	–
CC(C)(C)c1cc(NC(=O)[C@@H]2CCCCN2C(=O)C(F)(F)F)no1 [(S)-1-(2,2,2-Trifluoro-acetyl)-piperidine-2-carboxylic acid (5-tert-butyl-isoxazol-3-yl)-amide]	48	–
O=C(Nc1ccc(C(F)(F)F)cn1)[C@@H]1CCCCN1C(=O)C1CCC(F)(F)CC1 [(S)-1-(4,4-Difluoro-cyclohexanecarbonyl)-piperidine-2-carboxylic acid (5-trifluoromethyl-pyridin-2-yl)-amide]	–	282
CC(C)(C)c1cc(NC(=O)C2CCCCN2C(=O)c2ccc(C(F)(F)F)cc2)no1 (stereo not drawn) [1-(4-Trifluoromethyl-benzoyl)-piperidine-2-carboxylic acid (5-tert-butyl-isoxazol-3-yl)-amide]	–	395
CC(C)(C)c1cc(NC(=O)[C@@H]2CCCCN2C(=O)C[C@H]2CCCO2)no1 [(S)-1-((R)-2-Tetrahydro-furan-2-yl-acetyl)-piperidine-2-carboxylic acid (5-tert-butyl-isoxazol-3-yl)-amide]	94	–
CC(C)(C)c1cc(NC(=O)[C@@H]2CCCN(c3ncc(C(F)(F)F)cc3Cl)C2)no1 [(R)-3′-Chloro-5′-trifluoromethyl-3,4,5,6-tetrahydro-2H-[1,2′]bipyridinyl-3-carboxylic acid (5-tert-butyl-isoxazol-3-yl)-amide]	54	–
O=C(Nc1nc2cc(F)c(F)cc2s1)[C@@H]1CCCCN1C(=O)N1CCS(=O)(=O)CC1 [(S)-1-(1,1-Dioxo-1λ^6-thiomorpholine-4-carbonyl)-piperidine-2-carboxylic acid (5,6-difluoro-benzothiazol-2-yl)-amide]	–	448
CCc1sc(NC(=O)[C@@H]2CCCCN2C(=O)OC(C)(C)C)nc1-c1ccccc1 [(S)-2-(5-Ethyl-4-phenyl-thiazol-2-ylcarbamoyl)-piperidine-1-carboxylic acid tert-butyl ester]	–	180
CC(C)(C)c1cc(NC(=O)C2CCCN(C(=O)C3CCC(F)(F)CC3)C2)no1 (stereo not drawn) [1-(4,4-Difluoro-cyclohexanecarbonyl)-piperidine-3-carboxylic acid (5-tert-butyl-isoxazol-3-yl)-amide]	23	–
CC(C)(C)c1cc(NC(=O)C2CCCN(Cc3ccc(Cl)cc3)C2)no1 (stereo not drawn) [1-(4-Chloro-benzyl)-piperidine-3-carboxylic acid (5-tert-butyl-isoxazol-3-yl)-amide]	2.7	–
O=C(Nc1nc2cc(Cl)ccc2s1)[C@@H]1CCCCN1CC1CCOCC1 [(S)-1-(Tetrahydro-pyran-4-ylmethyl)-piperidine-2-carboxylic acid (5-chloro-benzothiazol-2-yl)-amide]	0.2	–
CC(C)(C)c1cc(NC(=O)[C@@H]2CCCCN2c2ncc(C(F)(F)F)cc2Cl)no1 [(S)-3′-Chloro-5′-trifluoromethyl-3,4,5,6-tetrahydro-2H-[1,2′]bipyridinyl-2-carboxylic acid (5-tert-butyl-isoxazol-3-yl)-amide]	0.18	–
O=C(Nc1nc(-c2ccc(F)c(F)c2)cs1)[C@@H]1CCCCN1C(=O)N1CCS(=O)(=O)CC1 [(S)-1-(1,1-Dioxo-1λ^6-thiomorpholine-4-carbonyl)-piperidine-2-carboxylic acid [4-(3,4-difluoro-phenyl)-thiazol-2-yl]-amide]	–	26
CC(C)(C)c1cc(NC(=O)[C@@H]2CCCC(=O)N2c2ccc(Cl)cc2)on1 [(S)-1-(4-Chloro-phenyl)-6-oxo-piperidine-2-carboxylic acid (3-tert-butyl-isoxazol-5-yl)-amide]	–	181
CC(C)(C)c1cc(NC(=O)[C@@H]2CCCN(C(=O)C3CCC(F)(F)CC3)C2)no1 [(R)-1-(4,4-Difluoro-cyclohexanecarbonyl)-piperidine-3-carboxylic acid (5-tert-butyl-isoxazol-3-yl)-amide]	42	–
COc1ccc(-c2nsc(NC(=O)[C@@H]3CCCCN3C(=O)N3CCS(=O)(=O)CC3)n2)cc1 [(S)-1-(1,1-Dioxo-1λ^6-thiomorpholine-4-carbonyl)-piperidine-2-carboxylic acid [3-(4-methoxy-phenyl)-[1,2,4]thiadiazol-5-yl]-amide]	–	20

Reference: US8889670B2, “Heterocyclic compounds which modulate the CB2 receptor” (Boehringer Ingelheim International GmbH, priority 2009, dated 2014)
